The half-life is the time needed for the level to fall by half in the phase considered.

The values that follow come from ChEMBL document CHEMBL1125972, “Synthesis of chemoreversible prodrugs of ARA-C” (Bioorg Med Chem Lett, 1991).

The nature of the data set: Half life value was determined. Format: ADME.

Compound `CC(=O)O.CC(C)(NC(=O)CO)C(=O)Nc1ccn(C2O[C@H](CO)[C@@H](O)[C@@H]2O)c(=O)n1` (stereo partly specified) gave a half-life of 860 h. `CC(=O)[O-].CC(C)(NC(=O)CO)C(=O)Nc1ccn(C2O[C@H](CO)[C@@H](O)[C@@H]2O)c(=O)n1.[Na+]` (stereo partly specified) had a half-life of 1.4 h. `CC(C)(NC(=O)[C@@H](N)Cc1ccc(OCc2ccccc2)cc1)C(=O)Nc1ccn(C2O[C@H](CO)[C@@H](O)[C@@H]2O)c(=O)n1` (stereo partly specified) showed a half-life of 42 h. This half-life is about 30-fold higher than that of the compound before.

Take `CC(=O)O.CC(C)(NC(=O)[C@@H](N)Cc1ccc(OCc2ccccc2)cc1)C(=O)Nc1ccn(C2O[C@H](CO)[C@@H](O)[C@@H]2O)c(=O)n1` (stereo partly specified): the half-life is 31 h.

`CC(=O)[O-].CC(C)(NC(=O)[C@@H](N)Cc1ccc(OCc2ccccc2)cc1)C(=O)Nc1ccn(C2O[C@H](CO)[C@@H](O)[C@@H]2O)c(=O)n1.[Na+]` (stereo partly specified) had a half-life of 0.3 h. This half-life lies about 100-fold lower than the previous one. On to `CC(C)(NC(=O)CO)C(=O)Nc1ccn(C2O[C@H](CO)[C@@H](O)[C@@H]2O)c(=O)n1` (stereo partly specified), for which the half-life was 360 h.
